Experimental findings from publication PMC6070976, “Interaction of Ochratoxin A and Its Thermal Degradation Product 2′R-Ochratoxin A with Human Serum Albumin” (Toxins, 2018) are described below.

Each structure is given as a SMILES string.

In data set [1] the target is T1, human serum albumin (HSA) (Homo sapiens, UniProt P02768).
T1 construct: gene ALB
The data set is described as follows: equilibrium dialysis; also fluorescence titrations and anisotropy, HSA affinity chromatography, CD. In kind it is binding. Conditions: read-out: % bound.

The target in data set [2] is T1, human serum albumin (HSA). The data set is described as follows: fluorescence quenching/enhancement and anisotropy titrations; also equilibrium dialysis, HSA affinity chromatography, CD. In kind it is binding. The settings on record: read-out: logK (Hyperquad, Figure 3) (converted). For orientation: Equilibrium dialysis compares concentrations on both sides of a semipermeable membrane.

T1 sequence (P02768 25-609): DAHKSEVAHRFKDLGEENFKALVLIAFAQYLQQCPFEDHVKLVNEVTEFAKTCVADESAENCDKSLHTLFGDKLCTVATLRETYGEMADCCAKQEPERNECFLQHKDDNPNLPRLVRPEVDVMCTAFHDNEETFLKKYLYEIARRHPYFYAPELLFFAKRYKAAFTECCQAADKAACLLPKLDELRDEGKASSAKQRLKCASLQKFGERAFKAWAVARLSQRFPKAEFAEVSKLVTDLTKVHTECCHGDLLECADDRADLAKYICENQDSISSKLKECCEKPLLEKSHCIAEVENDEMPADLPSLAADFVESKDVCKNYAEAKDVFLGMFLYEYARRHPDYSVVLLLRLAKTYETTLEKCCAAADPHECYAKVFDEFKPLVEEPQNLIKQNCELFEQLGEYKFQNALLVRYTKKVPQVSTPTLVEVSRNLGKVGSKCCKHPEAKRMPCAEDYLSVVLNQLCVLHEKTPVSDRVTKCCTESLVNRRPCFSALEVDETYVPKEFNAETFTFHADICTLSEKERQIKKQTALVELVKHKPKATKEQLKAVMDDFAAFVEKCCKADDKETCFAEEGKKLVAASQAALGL

With `C[C@@H]1Cc2c(Cl)cc(C(=O)N[C@@H](Cc3ccccc3)C(=O)O)c(O)c2C(=O)O1` [OTA, Ochratoxin A], the fraction unbound in data set [1] is < 0.004.
On to `C[C@@H]1Cc2c(Cl)cc(C(=O)N[C@H](Cc3ccccc3)C(=O)O)c(O)c2C(=O)O1` [2′R-OTA, 2′R-Ochratoxin A], for which the Kd in data set [2] is 589 nM.
